For 9 compounds, inhibition, IC50 and ΔTm results are on record in publication PMC9182141, “Assay Development and Identification of the First Plasmodium falciparum 7,8-dihydro-6-hydroxymethylpterin-pyrophosphokinase Inhibitors” (Molecules, 2022).

The term IC50 denotes the concentration that inhibits the measured activity by half. Broadly, the ΔTm is the change in melting temperature against a reference sample.

Assay [1] concerns the target T1, PfHPPK-GFP (Plasmodium falciparum, UniProt Q25704). Put plainly: KinaseGlo enzyme inhibition assay. In kind it is biochemical. As to conditions: 1 mM compound, 10 μM HMDP and 10 μM ATP, 20 min at RT; read-out: Inhib. at 1 mM (%). The method, then:
For all the compounds displaying a measurable change of Tm, PfHPPK inhibition was recorded at 10 μM HMDP and ATP and 1 mM compound using the KinaseGlo assay. These conditions were chosen to be in the reported Km range for both HMDP and ATP substrates, enabling detection of both competitive and uncompetitive inhibitors. Compounds were incubated with HMDP, ATP and HPPK-GFP for 20 min at RT, followed by addition of the KinaseGlo reagent. After 10 min equilibration, luminescence was recorded, which directly reflects the quantity of ATP left in solution at the end of the reaction. Percentages of inhibition were calculated based on a DMSO positive control and a negative control lacking HPPK-GFP. Compounds structures, ΔTm and levels of inhibition appear in Table 1 and Table 2.
PfHPPK-GFP inhibition assay was carried using the KinaseGlo Plus kit (Promega, Madison, WI, USA). In a black 96-well plate were dispensed test compounds (1 μL of 50 mM DMSO stock), master mix (100 mM Tris pH 9, 10 mM β-mercapto ethanol, 10 mM MgSO4, 0.01% w/v BSA, 10 μM HMDP and 10 μM ATP). Reaction was initiated by addition of 2 μg of enzyme, reaching a total reaction volume of 50 μL, and reaction was allowed to proceed for 20 min at RT shaking at 300 rpm. Reaction was then quenched by addition of 50 μL KinaseGlo reagent and allowed to equilibrate for 10 min at RT shaking at 300 rpm. Luminescence was recorded on a Biotek Synergy H1 plate reader (Agilent, Santa Clara, CA, USA) using an integration time of 1 s per well. Percentage of inhibition was calculated related to a positive control experiment (no enzyme added) and a negative control experiment (no inhibitor added).
In general terms: Kinase-Glo reads ATP consumption through a luciferase reaction.

In assay [2] the test system is Plasmodium falciparum V1/S (drug resistant). Put plainly: Antimalarial activity, [3H]-hypoxanthine incorporation assay, V1/S. Type of assay: cell-based. The conditions noted are these: P. falciparum V1/S (drug resistant), when no IC50 could be determined, highest tested concentration noted. On the procedure: (§1) Finally, the various hit compounds were tested for their antimalarial activity against P. falciparum TM4/8.2 [26] and V1/S [27] strains. Parasite cultures were treated with test compounds at different concentrations, and antimalarial activity was measured using [3H]-hypoxanthine incorporation assay, according to our previously reported protocol. […] IC50 values could not be measured for other compounds. At this stage, there is no explanation for the difference in antiparasitic activity observed between TM4/8.2 and V1/S strains, and more investigations would be needed to conclude on this effect.
(§2) Compounds were tested for their antimalarial activity against P. falciparum TM4/8.2 [26] and V1/S [27] strains according to our previously reported protocol. In brief, parasite strains were maintained continuously in human erythrocytes in RPMI1640 supplemented with 25 mM HEPES pH 7.4, 0.2% NaHCO3, 40 µg/mL gentamicin and 8% human serum at 37 °C under 3% CO2. For in vitro antimalarial assay, parasite was treated with serial dilutions of the inhibitors, and parasite survival was determined using a modified microdilution radioisotope technique.

The subject of assay [3] is Plasmodium falciparum TM4/8.2 (drug sensitive). Put plainly: Antimalarial activity, [3H]-hypoxanthine incorporation assay, TM4/8.2. As to conditions: P. falciparum TM4/8.2 (drug sensitive), when no IC50 could be determined, highest tested concentration noted. In kind it is cell-based. The method, then: as §1, §2
Assay [4] deals with Vero cell line (African green monkey kidney cells). Put plainly: Cytotoxicity, sulforhodamine B assay, Vero cells. The conditions noted are these: Chlorocebus sabaeus, 72 h, when no IC50 could be determined, highest tested concentration noted. Type of assay: cell-based.
Assay [5] deals with KB cell line (human epithelial carcinoma cells). The assay is described as follows: Cytotoxicity, sulforhodamine B assay, KB cells. In kind it is cell-based. The conditions noted are these: 72 h, when no IC50 could be determined, highest tested concentration noted.
In assay [6] the target is T1, PfHPPK-GFP. Put plainly: DSF-GTP (GFP-tagged protein differential scanning fluorimetry) thermal shift. In kind it is binding. As to conditions: read-out: ΔTm (°C). The method, then:
In a preliminary screening experiment, buffer conditions were investigated, searching for conditions that provide the largest thermal shift in the presence of 1 mM ATP. DSF curves were recorded under a total of 17 different conditions, with variations in buffer nature and pH, salts nature and concentration, effect of reducing agent, MgSO4 and glycerol.
From there, protein binding properties of the hit compounds were assessed experimentally using the developed DSF-GTP assay. A total of 54 compounds were tested, including virtual screening hits and closely related structures. According to our protocol, each compound was mixed with PfHPPK-GFP and submitted to a temperature gradient from 30 °C to 90 °C at 1 °C/min while GFP fluorescence was recorded. The first derivative of the resulting curve was used to determine the melting temperature (Tm). For each set of experiments, a negative control containing DMSO was added, and ΔTm values were calculated for each compound vs. the DMSO control. […] Two compound families were identified as the most promising by our DSF-GTP assay: 5-phenylazo-2,4-diaminopyrimidines (series 1) and phenyltriazolyl-2-amino-4-pyrimidinone (series 2). In series 2, linkers of different lengths that separate the phenyl triazolyl and the pyrimidine moieties were included.
In a typical DSF-GTP experiment, a master mix containing buffer and PfHPPK-GFP was prepared in a microcentrifuge tube, corresponding to a final protein concentration of 20 μg/mL. Ligands of interest were dispensed in low-profile 96-well plates (Bio-Rad) to 1 mM final concentration, and the master mix was dispensed to a final volume of 50 μL per well. In these conditions, DMSO content was maintained constant at 2%. The microplate was sealed with adhesive film and mixed by shaking for 2 min at 800 rpm at RT. The microplate was then submitted to a DSF run on a CFX96 RT-PCR (Bio-Rad, Hercules, CA, USA). DSF program was designed by starting with a 3 min equilibration phase at 30 °C, followed by a temperature gradient of 1 °C/min until 90 °C, recording fluorescence every 0.5 °C. Fluorescence was recorded using the FAM channel (λex = 450–490 nm, λem = 510–530 nm). Curves were fitted using the Precision Melt Analysis software (Bio-Rad).

Where a name gives a salt, the structure may show the parent alone.

T1 sequence (Q25704 entry or part of it): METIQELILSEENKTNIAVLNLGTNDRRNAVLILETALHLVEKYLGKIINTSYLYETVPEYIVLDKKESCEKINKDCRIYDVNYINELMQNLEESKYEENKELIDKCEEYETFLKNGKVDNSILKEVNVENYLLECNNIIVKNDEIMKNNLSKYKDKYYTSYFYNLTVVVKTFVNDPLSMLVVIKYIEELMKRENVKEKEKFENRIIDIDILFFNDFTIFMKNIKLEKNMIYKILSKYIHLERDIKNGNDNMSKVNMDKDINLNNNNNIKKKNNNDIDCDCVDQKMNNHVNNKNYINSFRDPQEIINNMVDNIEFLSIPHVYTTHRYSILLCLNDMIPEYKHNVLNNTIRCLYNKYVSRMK

Regarding `CCc1nc(N)[nH]c(=O)c1CCc1cn(-c2cccc(C(=O)O)c2)nn1` [Compound 12, 2-Amino-6-ethyl-5-(2-(1-(3-(carboxy)phenyl)-1H-1,2,3-triazol-4-yl)ethyl)pyrimidin-4(3H)-one hydrochloride], the inhibition at 1000 µM at PfHPPK-GFP [1] was found to be 24.5 ± 2.3%. Further, the IC50 in assay [2] (Plasmodium falciparum), in assay [3], in assay [4] and in assay [5] was over 50 µM each time. For the same compound, at PfHPPK-GFP [6], the ΔTm at 1000 µM is -1.3 ± 0.3 °C.

Turning to `CCc1nc(N)[nH]c(=O)c1Cc1cn(-c2cccc(C(=O)O)c2)nn1` [Compound 9, 2-Amino-6-ethyl-5-((1-(3-(carboxy)phenyl)-1H-1,2,3-triazol-4-yl)methyl)pyrimidin-4(3H)-one], the inhibition at 1000 µM on PfHPPK-GFP [1] was 16.4 ± 2.9%. In addition, the concentration for half-maximal inhibition (IC50) in assay [2] (Plasmodium falciparum), in assay [3], in assay [4] and in assay [5] was over 50 µM each time. In addition, the ΔTm at 1000 µM on PfHPPK-GFP [6] was -1 °C.

As to `CCc1nc(N)[nH]c(=O)c1Cc1cn(-c2ccc(C(=O)O)cc2)nn1` [Compound 8, 2-Amino-6-ethyl-5-((1-(4-(carboxy)phenyl)-1H-1,2,3-triazol-4-yl)methyl)pyrimidin-4(3H)-one], the inhibition at 1000 µM on PfHPPK-GFP [1] came to 6.9 ± 2%. The IC50 in assay [2] (Plasmodium falciparum), in assay [3], in assay [4] and in assay [5] was over 50 µM each time. Moreover, the ΔTm at 1000 µM on PfHPPK-GFP [6] was -1.2 ± 0.3 °C.

For `COC(=O)c1cccc(/N=N/c2c(N)nc(N)nc2Cl)c1` [Compound 2, Methyl (E)-3-((2,4-diamino-6-chloropyrimidin-5-yl)diazenyl) benzoate], on PfHPPK-GFP [1], the inhibition at 1000 µM was 11 ± 4.8%. Further, the IC50 is 89.2 µM in assay [2]; 89.2 µM in assay [2] (Plasmodium falciparum); over 100 µM in assay [3]; over 100 µM in assay [4]; over 100 µM in assay [5]. Moreover, the ΔTm at 1000 µM at PfHPPK-GFP [6] is -1 °C.

Consider `Nc1nc(N)c(/N=N/c2cccc(C(=O)O)c2)c(N)n1` [Compound 5, (E)-3-((2,4,6-Triaminopyrimidin-5-yl)diazenyl)benzoic acid], for which the inhibition at 1000 µM on PfHPPK-GFP [1] stood at 14.6 ± 3.2%. Further, the IC50 in assay [2] (Plasmodium falciparum) and in assay [3] was over 10 µM each time. In addition, the ΔTm at 1000 µM at PfHPPK-GFP [6] is -1 °C.

As to `COc1nc(N)nc(N)c1/N=N/c1cccc([N+](=O)[O-])c1` [Compound 1, (E)-6-Methoxy-5-((3-nitrophenyl)diazenyl)pyrimidine-2,4-diamine], the inhibition at 1000 µM at PfHPPK-GFP [1] turned out to be 2.5 ± 1.4%. Besides, the IC50 in assay [2] is 21 µM; in assay [2] (Plasmodium falciparum), 21 µM; in assay [3], over 100 µM; in assay [4], over 100 µM; in assay [5], over 100 µM. In addition, at PfHPPK-GFP [6], the ΔTm at 1000 µM is -1 °C.

Regarding `CCc1nc(N)[nH]c(=O)c1Cc1cn(-c2cccc([N+](=O)[O-])c2)nn1` [Compound 10, 2-Amino-6-ethyl-5-((1-(3-(nitro)phenyl)-1H-1,2,3-triazol-4-yl)methyl)pyrimidin-4(3H)-one hydrochloride], the inhibition at 1000 µM on PfHPPK-GFP [1] turned out to be 12.1 ± 4%. In addition, the IC50 in assay [2] (Plasmodium falciparum), in assay [3], in assay [4] and in assay [5] was over 50 µM in each case. In addition, the ΔTm at 1000 µM at PfHPPK-GFP [6] is -1.2 ± 0.3 °C.

In the case of `Cc1nc(N)[nH]c(=O)c1Cc1cn(-c2cccc(C(=O)O)c2)nn1` [Compound 7, 2-Amino-6-methyl-5-((1-(3-(carboxy)phenyl)-1H-1,2,3-triazol-4-yl)methyl)pyrimidin-4(3H)-one], the inhibition at 1000 µM on PfHPPK-GFP [1] came out at 9.2 ± 1.5%. The IC50 in assay [2] (Plasmodium falciparum), in assay [3], in assay [4] and in assay [5] was over 25 µM in each case. For the same compound, the ΔTm at 1000 µM on PfHPPK-GFP [6] was -1 °C.

`Cc1nc(N)[nH]c(=O)c1Cc1cn(-c2ccc(C(=O)O)cc2)nn1` [Compound 6, 2-Amino-6-methyl-5-((1-(4-(carboxy)phenyl)-1H-1,2,3-triazol-4-yl)methyl)pyrimidin-4(3H)-one]: the inhibition at 1000 µM at PfHPPK-GFP [1] was 1.8 ± 0.6%. For the same compound, the IC50 in assay [2] (Plasmodium falciparum), in assay [3], in assay [4] and in assay [5] was over 25 µM each time. Further, the ΔTm at 1000 µM on PfHPPK-GFP [6] was -1 °C.
